Experimental data taken from US20240238423A9, “TETRAHYDROISOQUINOLINE HETEROBIFUNCTIONAL BCL-XL DEGRADERS” (Treeline Biosciences, Inc., priority 2022, published 2024).
Read-outs that look alike come from different tables or passages of the source.

Molecular target: T1, Human BCL-XL protein (N-terminal HiBiT tagged BCL-XL in HT1080 cells) (Homo sapiens, UniProt Q07817)
T1 construct: expressed in transfected cells; host or cells: HT-1080 (ATCC CCL-121), stably transduced with lentivirus pLV-UBC-N-HiBiT-BCL-XL-PGK-puro and selected with puromycin
Assay: HiBiT based degradation assay
Type: cell-based
Settings: HT1080 cells expressing HiBiT-BCL-XL; for Ymin (6 h) / Ymin (24 h): BCL-XL degradation normalized with DMSO control; for DC50: BCL-XL degradation
Summary of the method: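 This HiBiT degradation assay measured loss of BCL-XL in HT1080 cells that stably express an N-terminal HiBiT-BCL-XL fusion delivered by lentivirus. Cells were added to compound-spotted 384-well plates, and luminescence was read on a PHERAstar FSX reader. Signal was expressed relative to DMSO controls, curves were fitted by four-parameter logistic regression, and for hook-shaped curves the Ymin point served as the bottom plateau when calculating EC50.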

T1 sequence (Q07817 whole entry): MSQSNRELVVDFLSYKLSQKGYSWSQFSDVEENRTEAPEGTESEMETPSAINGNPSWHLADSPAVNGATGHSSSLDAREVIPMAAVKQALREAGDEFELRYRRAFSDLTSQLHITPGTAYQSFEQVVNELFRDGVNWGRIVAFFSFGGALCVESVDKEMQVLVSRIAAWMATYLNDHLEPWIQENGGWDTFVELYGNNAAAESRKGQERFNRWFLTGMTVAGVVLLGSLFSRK

Ymin (6 h) | Ymin (24 h) | DC50 (6 h, read-out: EC50 (6 h)) [nM] | DC50 (24 h, read-out: EC50 (24 h)) [nM] | SMILES
A (Ymin < 50%) | A (Ymin < 50%) | < 100 | < 100 | Cc1cc(OCCCN2CCN(CC(=O)Nc3ccc4c(C5CCC(=O)NC5=O)nn(C)c4c3)CC2)ccc1-c1ccc(N2CCc3cccc(C(=O)Nc4nc5ccccc5s4)c3C2)nc1C(=O)O (centres unmarked) [Compound 119, 6-[8-(1,3-benzothiazol-2-ylcarbamoyl)-3,4-dihydro-1H-isoquinolin-2-yl]-3-[4-[3-[4-[2-[[3-(2,6-dioxo-3-piperidyl)-1-methyl-indazol-6-yl]amino]-2-oxo-ethyl]piperazin-1-yl]propoxy]-2-methyl-phenyl]pyridine-2-carboxylic acid]
B (50% ≤ Ymin < 70%) | A (Ymin < 50%) | < 100 | < 100 | Cc1c(OCCC2CCN(CC(=O)N3CCN(c4cccc5c(C6CCC(=O)NC6=O)nn(C)c45)CC3)CC2)cccc1-c1ccc(N2CCc3cccc(C(=O)Nc4nc5ccccc5s4)c3C2)nc1C(=O)O (centres unmarked) [Compound 145, 6-(8-(benzo[d]thiazol-2-ylcarbamoyl)-3,4-dihydroisoquinolin-2(1H)-yl)-3-(3-(2-(1-(2-(4-(3-(2,6-dioxopiperidin-3-yl)-1-methyl-1H-indazol-7-yl)piperazin-1-yl)-2-oxoethyl)piperidin-4-yl)ethoxy)-2-methylphenyl)picolinic acid]
– | A (Ymin < 50%) | – | < 100 | Cc1c(O[C@H]2CC[C@H](CCCC(C)N3CCN(c4cccc5c(C6CCC(=O)NC6=O)nn(C)c45)CC3)CC2)cccc1-c1ccc(N2CCc3cccc(C(=O)Nc4nc5ccccc5s4)c3C2)nc1C(=O)O (single isomer, unassigned) [Compound 349a]
– | A (Ymin < 50%) | – | < 100 | Cc1c(OCCC2CCN(CCCC3CCN(c4ccc5c(C6CCC(=O)NC6=O)nn(C)c5c4)CC3)CC2)cccc1-c1ccc(N2CCc3cccc(C(=O)Nc4nc5ccccc5s4)c3C2)nc1C(=O)O (centres unmarked) [Compound 287, 6-[8-(1,3-benzothiazol-2-ylcarbamoyl)-3,4-dihydro-1H-isoquinolin-2-yl]-3-[3-[2-[1-[3-[1-[3-(2,6-dioxo-3-piperidyl)-1-methyl-indazol-6-yl]-4-piperidyl]propyl]-4-piperidyl]ethoxy]-2-methyl-phenyl]pyridine-2-carboxylic acid]
– | A (Ymin < 50%) | – | < 100 | Cc1c(O[C@H]2CC[C@H](CCCC(C)(C)N3CCN(c4cccc5c(C6CCC(=O)NC6=O)nn(C)c45)CC3)CC2)cccc1-c1ccc(N2CCc3cccc(C(=O)Nc4nc5ccccc5s4)c3C2)nc1C(=O)O (some centres unmarked) [Compound 342a, 6-(8-(benzo[d]thiazol-2-ylcarbamoyl)-3,4-dihydroisoquinolin-2(1H)-yl)-3-(3-(((1s,4r)-4-(4-(4-(3-(2,6-dioxopiperidin-3-yl)-1-methyl-1H-indazol-7-yl)piperazin-1-yl)-4-methylpentyl)cyclohexyl)oxy)-2-methylphenyl)picolinic acid]
– | A (Ymin < 50%) | – | < 100 | Cc1c(OCCC[C@H]2CCN(CC(=O)Nc3ccc4c(C5CCC(=O)NC5=O)nn(C)c4c3)[C@@H](C)C2)cccc1-c1ccc(N2CCc3cccc(C(=O)Nc4nc5ccccc5s4)c3C2)nc1C(=O)O (stereo partly drawn) [Compound 343d, 6-[8-(1,3-benzothiazol-2-ylcarbamoyl)-3,4-dihydro-1H-isoquinolin-2-yl]-3-[3-[3-[(2S,4S)-1-[2-[[3-(2,6-dioxo-3-piperidyl)-1-methyl-indazol-6-yl]amino]-2-oxo-ethyl]-2-methyl-4-piperidyl]propoxy]-2-methyl-phenyl]pyridine-2-carboxylic acid]
– | B (50% ≤ Ymin < 70%) | – | 100 to 1000 | Cc1c(OCCCc2ccc(CC(=O)Nc3ccc4c(C5CCC(=O)NC5=O)nn(C)c4c3)cn2)cccc1-c1ccc(N2CCc3cccc(C(=O)Nc4nc5ccccc5s4)c3C2)nc1C(=O)O (centres unmarked) [Compound 309, 6-[8-(1,3-benzothiazol-2-ylcarbamoyl)-3,4-dihydro-1H-isoquinolin-2-yl]-3-[3-[3-[5-[2-[[3-(2,6-dioxo-3-piperidyl)-1-methyl-indazol-6-yl]amino]-2-oxo-ethyl]-2-pyridyl]propoxy]-2-methyl-phenyl]pyridine-2-carboxylic acid]
– | A (Ymin < 50%) | – | < 100 | Cc1c(O[C@H]2CC[C@H](CCC[C@@H](C)N3CCN(c4ccc5c(C6CCC(=O)NC6=O)nn(C)c5c4)CC3)CC2)cccc1-c1ccc(N2CCc3cccc(C(=O)Nc4nc5ccccc5s4)c3C2)nc1C(=O)O (single isomer, unassigned) [Compound 333b]
– | B (50% ≤ Ymin < 70%) | – | 100 to 1000 | Cc1c(OCCCC2CCN(C(C)(C)C(=O)Nc3ccc4c(C5CCC(=O)NC5=O)nn(C)c4c3)CC2)cccc1-c1ccc(N2CCc3cccc(C(=O)Nc4nc5ccccc5s4)c3C2)nc1C(=O)O (centres unmarked) [Compound 166, 6-[8-(1,3-benzothiazol-2-ylcarbamoyl)-3,4-dihydro-1H-isoquinolin-2-yl]-3-[3-[3-[1-[2-[[3-(2,6-dioxo-3-piperidyl)-1-methyl-indazol-6-yl]amino]-1,1-dimethyl-2-oxo-ethyl]-4-piperidyl]propoxy]-2-methyl-phenyl]pyridine-2-carboxylic acid]
– | A (Ymin < 50%) | – | < 100 | Cc1c(O[C@H]2CC[C@H](CC[C@@H](C)N3CCN(c4cccc5c(C6CCC(=O)NC6=O)nn(C)c45)CC3)CC2)cccc1-c1ccc(N2CCc3cccc(C(=O)Nc4nc5ccccc5s4)c3C2)nc1C(=O)O (single isomer, unassigned) [Compound 283b]
– | A (Ymin < 50%) | – | < 100 | Cc1cc(O[C@H]2CC[C@H](CCC(=O)N3CCN(c4ccc5c(C6CCC(=O)NC6=O)nn(C)c5c4)CC3)CC2)ccc1-c1ccc(N2CCc3cccc(C(=O)Nc4nc5ccccc5s4)c3C2)nc1C(=O)O (some centres unmarked) [Compound 251a, 6-(8-(benzo[d]thiazol-2-ylcarbamoyl)-3,4-dihydroisoquinolin-2(1H)-yl)-3-(4-(((1r,4r)-4-(3-(4-(3-(2,6-dioxopiperidin-3-yl)-1-methyl-1H-indazol-6-yl)piperazin-1-yl)-3-oxopropyl)cyclohexyl)oxy)-2-methylphenyl)picolinic acid]
– | B (50% ≤ Ymin < 70%) | – | < 100 | Cc1c(OCC[C@@H]2CCCN(CC(=O)Nc3ccc4c(C5CCC(=O)NC5=O)nn(C)c4c3)C2)cccc1-c1ccc(N2CCc3cccc(C(=O)Nc4nc5ccccc5s4)c3C2)nc1C(=O)O (stereo partly drawn) [Compound 180a, 6-(8-(benzo[d]thiazol-2-ylcarbamoyl)-3,4-dihydroisoquinolin-2(1H)-yl)-3-(3-(2-((3S)-1-(2-((3-(2,6-dioxopiperidin-3-yl)-1-methyl-1H-indazol-6-yl)amino)-2-oxoethyl)piperidin-3-yl)ethoxy)-2-methylphenyl)picolinic acid]
– | A (Ymin < 50%) | – | < 100 | Cc1c(O[C@H]2CC[C@H](CCC(C)(C)N3CCN(c4ccc5c(C6CCC(=O)NC6=O)nn(C)c5c4)CC3)CC2)cccc1-c1ccc(N2CCc3cccc(C(=O)Nc4nc5ccccc5s4)c3C2)nc1C(=O)O (some centres unmarked) [Compound 340a, 6-(8-(benzo[d]thiazol-2-ylcarbamoyl)-3,4-dihydroisoquinolin-2(1H)-yl)-3-(3-(((1s,4r)-4-(3-(4-(3-(2,6-dioxopiperidin-3-yl)-1-methyl-1H-indazol-6-yl)piperazin-1-yl)-3-methylbutyl)cyclohexyl)oxy)-2-methylphenyl)picolinic acid]
A (Ymin < 50%) | A (Ymin < 50%) | < 100 | < 100 | Cc1c(OCCCN2[C@H](C)CN(CC(=O)Nc3ccc4c(C5CCC(=O)NC5=O)nn(C)c4c3)C[C@@H]2C)cccc1-c1ccc(N2CCc3cccc(C(=O)Nc4nc5ccccc5s4)c3C2)nc1C(=O)O (stereo partly drawn) [Compound 131a, 6-[8-(1,3-benzothiazol-2-ylcarbamoyl)-3,4-dihydro-1H-isoquinolin-2-yl]-3-[3-[3-[(2R,6S)-4-[2-[[3-(2,6-dioxo-3-piperidyl)-1-methyl-indazol-6-yl]amino]-2-oxo-ethyl]-2,6-dimethyl-piperazin-1-yl]propoxy]-2-methyl-phenyl]pyridine-2-carboxylic acid]
– | A (Ymin < 50%) | – | < 100 | Cc1c(OCC[C@@H]2CCN(CC(=O)Nc3ccc4c(C5CCC(=O)NC5=O)nn(C)c4c3)C2)cccc1-c1ccc(N2CCc3cccc(C(=O)Nc4nc5ccccc5s4)c3C2)nc1C(=O)O (stereo partly drawn) [Compound 219a, 6-[8-(1,3-benzothiazol-2-ylcarbamoyl)-3,4-dihydro-1H-isoquinolin-2-yl]-3-[3-[2-[(3S)-1-[2-[[3-(2,6-dioxo-3-piperidyl)-1-methyl-indazol-6-yl]amino]-2-oxo-ethyl]pyrrolidin-3-yl]ethoxy]-2-methyl-phenyl]pyridine-2-carboxylic acid]

SMILES | Ymin (6 h) | Ymin (24 h) | DC50 (6 h, read-out: EC50 (6 h)) [nM] | DC50 (24 h, read-out: EC50 (24 h)) [nM]
Cc1c(OCCO[C@H]2C[C@H]3CC[C@@H](C2)N3CC(=O)Nc2ccc3c(C4CCC(=O)NC4=O)nn(C)c3c2)cccc1-c1ccc(N2CCc3cccc(C(=O)Nc4nc5ccccc5s4)c3C2)nc1C(=O)O (stereo partly drawn) [Compound 174a, 6-(8-(benzo[d]thiazol-2-ylcarbamoyl)-3,4-dihydroisoquinolin-2(1H)-yl)-3-(3-(2-(((1R,3r,5S)-8-(2-((3-(2,6-dioxopiperidin-3-yl)-1-methyl-1H-indazol-6-yl)amino)-2-oxoethyl)-8-azabicyclo[3.2.1]octan-3-yl)oxy)ethoxy)-2-methylphenyl)picolinic acid] | – | A (Ymin < 50%) | – | < 100
